Reference: patent publication US20250288627A1, “COMPOSITION FOR AMELIORATING, PREVENTING OR TREATING SYSTEMIC SCLEROSIS AND PULMONARY FIBROSIS CONTAINING BIFIDOBACTERIUM LONGUM RAPO” (INDUSTRY-ACADEMIC COOPERATION FOUNDATION GYEONGSANG …, priority 2024, published 2025)

System: mice with idiopathic pulmonary fibrosis
Test: Single/combination administration of pirfenidone and Bifidobacterium longum RAPO in idiopathic pulmonary fibrosis mice (intratracheal BLM 2 U/mouse kg)
Assay type: in vivo
Details: for pulmonary fibrosis: FIG. 3
Description: To determine whether or not administration of a combination of pirfenidone (PFD), which is a conventional approved and used drug for pulmonary fibrosis, with Bifidobacterium longum RAPO, has a synergistic therapeutic effect due to Bifidobacterium longum RAPO, the inhibitory effects on pulmonary fibrosis after single and combination administration of PFD and Bifidobacterium longum were compared and evaluated in mice with idiopathic pulmonary fibrosis.
Idiopathic pulmonary fibrosis was induced by a single intratracheal injection of 50 μL (2 U/mouse kg) of BLM into 8-week-old male C57BL/6 mice to induce pulmonary fibrosis. Pirfenidone (PFD) and Bifidobacterium longum RAPO were administered orally 5 times a week for a total of 2 weeks, starting 7 days after inducing pulmonary fibrosis with BLM until the 21st day, the end date of the experiment. The administration groups and doses were as follows: 1) Normal control group: normal mice that were not administered any treatment; 2) disease control group: IPF mice administered vehicle containing neither PFD nor Bifidobacterium longum RAPO; 3) P100 group: IPF mice administered PFD 100 mg/mouse kg; 4) P200 group: IPF mice administered PFD 200 mg/mouse kg; 5) RAPO-A group: IPF mice administered Bifidobacterium longum RAPO 1×10^8 CFU/mouse; 6) RAPO-B group: IPF mice administered Bifidobacterium longum RAPO 5×10^8 CFU/mouse; 8) Comb A group: IPF mice administered a combination of PFD 100 mg/mouse kg and Bifidobacterium longum RAPO 1×10^8 CFU/mouse; 7) Comb B group: IPF mice administered a combination of 100 mg/mouse kg and Bifidobacterium longum RAPO 5×10^8 CFU/mouse. Efficacy evaluation was performed as follows. Lung tissues of mice with fibrosis induced on the 21st day after the start of BLM administration were sampled and fixed with formalin to form paraffin tissue blocks. The formed paraffin blocks were cut into 5 μm thick sections with a microtome and stained with Masson-Trichrome (MT), and the degree of pulmonary fibrosis was evaluated by analysis of an Ashcroft score, a collagen area, and an alveoli area.

[1] = P100 group: PFD 100 mg/mouse kg alone, compared to vehicle group

Cc1ccc(=O)n(-c2ccccc2)c1 [PFD, pirfenidone]
pulmonary fibrosis amelioration relative to P200 group (P100 group: PFD 100 mg/mouse kg alone, compared to P200 group): did not ameliorate pulmonary fibrosis comparable to the P200 group
Ashcroft score [1]: improvement
collagen area [1]: improvement
pulmonary fibrosis [1]: also alleviated pulmonary fibrosis
pulmonary fibrosis (P200 group: PFD 200 mg/mouse kg alone, oral, 5 times a week, 2 weeks, compared to vehicle group): significantly alleviated pulmonary fibrosis
